The source of these data is patent publication US9611251B2, “Substituted piperidine compounds and their use as orexin receptor modulators” (Janssen Pharmaceutica NV, priority 2013, dated 2017).

The target of one test is rat orexin 1 receptor (Rattus norvegicus, UniProt P56718). Nature of the test: Rat orexin 1 receptor radioligand binding. Particulars: rat orexin 1 receptor radioligand binding; averages of 2-20 runs; read-out: rOX1 Ki. In outline: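 Cell-suspension competition binding used 4 nM final tritiated thiazolyl-pyrrolidinyl-methanone radioligand in PBS, ≤0.1% DMSO, with 10 µM almorexant defining nonspecific binding. Filter-bound radioactivity was counted in triplicate. IC50 came from one-site competition fits and was converted to Ki using the predetermined Kd.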

A further test deals with human orexin 1 receptor (Homo sapiens, UniProt O43613). Nature of the test: Human orexin 1 receptor radioligand binding. Particulars: human orexin 1 receptor radioligand binding; averages of 2-20 runs; read-out: hOX1 Ki.
Another test deals with human orexin 2 receptor (Homo sapiens (Human), UniProt O43614). Nature of the test: Human orexin 2 receptor radioligand binding ([3H]-EMPA). Particulars: averages of 2-20 runs, read-out: hOX2 Ki. In short, it runs like this: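 Competition binding using homogenized HEK293 cells stably expressing human orexin 2 receptor, [3H]-EMPA at 2 nM final and ≤0.1% DMSO; nonspecific binding set with 10 μM almorexant. Filter-bound radioactivity counted by scintillation; one-site competition IC50 converted to Ki using pre-determined Kd, compounds run in triplicate.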
Sequence of human orexin 2 receptor (O43614 whole entry): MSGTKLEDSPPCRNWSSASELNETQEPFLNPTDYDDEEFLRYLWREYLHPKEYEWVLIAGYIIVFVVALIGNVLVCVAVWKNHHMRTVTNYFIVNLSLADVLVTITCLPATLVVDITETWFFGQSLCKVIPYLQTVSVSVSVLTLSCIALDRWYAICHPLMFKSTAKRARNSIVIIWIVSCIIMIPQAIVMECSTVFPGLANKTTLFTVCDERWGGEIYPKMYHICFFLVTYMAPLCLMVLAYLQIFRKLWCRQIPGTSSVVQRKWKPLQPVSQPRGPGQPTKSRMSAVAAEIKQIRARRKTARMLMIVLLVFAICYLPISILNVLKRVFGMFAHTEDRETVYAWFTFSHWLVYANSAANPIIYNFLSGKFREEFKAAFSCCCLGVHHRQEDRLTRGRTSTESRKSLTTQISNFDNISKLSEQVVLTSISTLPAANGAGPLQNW

`Cc1ccc(C(=O)N2CCC[C@@H](Oc3ccc(C(F)(F)F)cn3)[C@@H]2C)c(-n2nccn2)c1` [Example 112, (4-methyl-2-(2H-1,2,3-triazol-2-yl)phenyl)((2S,3R)-2-methyl-3-((5-(trifluoromethyl)pyridin-2-yl)oxy)piperidin-1-yl)methanone]: the Ki turned out to be 7 nM on rat orexin 1 receptor, 11 nM on human orexin 1 receptor and 664 nM at human orexin 2 receptor.

With `Cc1ccc(C(=O)N2CCC[C@@H](Oc3cnc(C(F)(F)F)cn3)[C@@H]2C)c(-n2nccn2)c1` [Example 113, (4-methyl-2-(2H-1,2,3-triazol-2-yl)phenyl)((2S,3R)-2-methyl-3-((5-(trifluoromethyl)pyrazin-2-yl)oxy)piperidin-1-yl)methanone], the Ki at rat orexin 1 receptor was found to be 25 nM; at human orexin 1 receptor, 43 nM; at human orexin 2 receptor, 3900 nM.

For `C[C@H]1[C@H](Oc2ccc(C(F)(F)F)cn2)CCCN1C(=O)c1cccc(F)c1-c1ncccn1` [Example 116, (3-fluoro-2-(pyrimidin-2-yl)phenyl)((2S,3R)-2-methyl-3-((5-(trifluoromethyl)pyridin-2-yl)oxy)piperidin-1-yl)methanone], the Ki on rat orexin 1 receptor is 15 nM; on human orexin 1 receptor, 18 nM; on human orexin 2 receptor, 598 nM.

`C[C@H]1[C@H](Oc2ccc(C(F)(F)F)cn2)CCCN1C(=O)c1cccc(F)c1-n1nccn1` [Example 124, (3-fluoro-2-(2H-1,2,3-triazol-2-yl)phenyl)((2S,3R)-2-methyl-3-((5-(trifluoromethyl)pyridin-2-yl)oxy)piperidin-1-yl)methanone]: the Ki at rat orexin 1 receptor came out at 21 nM; on human orexin 1 receptor it was 13 nM; on human orexin 2 receptor, 460 nM.

`C[C@H]1[C@H](Oc2cnc(C(F)(F)F)cn2)CCCN1C(=O)c1cccc(F)c1-n1nccn1` [Example 125, (3-fluoro-2-(2H-1,2,3-triazol-2-yl)phenyl)((2S,3R)-2-methyl-3-((5-(trifluoromethyl)pyrazin-2-yl)oxy)piperidin-1-yl)methanone]: the Ki at rat orexin 1 receptor amounted to 117 nM; on human orexin 1 receptor, 138 nM; on human orexin 2 receptor, 2500 nM.

With `C[C@H]1[C@H](Oc2ccc(C(F)(F)F)cn2)CCCN1C(=O)c1cc(F)ccc1-c1ncccn1` [Example 138, (5-fluoro-2-(pyrimidin-2-yl)phenyl)((2S,3R)-2-methyl-3-((5-(trifluoromethyl)pyridin-2-yl)oxy)piperidin-1-yl)methanone], the Ki on rat orexin 1 receptor is 20 nM; at human orexin 1 receptor it was 18 nM; on human orexin 2 receptor it was 544 nM.

As to `C[C@H]1[C@H](Oc2ccc(C(F)(F)F)cn2)CCCN1C(=O)c1ccc(F)cc1-c1ncccn1` [Example 139, (4-fluoro-2-(pyrimidin-2-yl)phenyl)((2S,3R)-2-methyl-3-((5-(trifluoromethyl)pyridin-2-yl)oxy)piperidin-1-yl)methanone], the results for the Ki at rat orexin 1 receptor, on human orexin 1 receptor and at human orexin 2 receptor were 51 nM, 51 nM and 1200 nM, respectively.

Take `C[C@H]1[C@H](Oc2ccc(C(F)(F)F)cn2)CCCN1C(=O)c1ccccc1-c1ncc(F)cn1` [Example 141, (2-(5-fluoropyrimidin-2-yl)phenyl)((2S,3R)-2-methyl-3-((5-(trifluoromethyl)pyridin-2-yl)oxy)piperidin-1-yl)methanone]: the Ki at rat orexin 1 receptor came out at 31 nM; at human orexin 1 receptor it was 22 nM; on human orexin 2 receptor, 676 nM.

Turning to `C[C@H]1[C@H](Oc2ccc(C(F)(F)F)cn2)CCCN1C(=O)c1ccccc1-c1ncccn1` [Example 143, ((2S,3R)-2-methyl-3-((5-(trifluoromethyl)pyridin-2-yl)oxy)piperidin-1-yl)(2-(pyrimidin-2-yl)phenyl)methanone], the values for the Ki at rat orexin 1 receptor, on human orexin 1 receptor and at human orexin 2 receptor were 25 nM, 15 nM and 473 nM, respectively.

`C[C@H]1[C@H](Oc2ccc(C(F)(F)F)cn2)CCCN1C(=O)c1ccc(F)cc1-n1nccn1` [Example 147, (4-fluoro-2-(2H-1,2,3-triazol-2-yl)phenyl)((2S,3R)-2-methyl-3-((5-(trifluoromethyl)pyridin-2-yl)oxy)piperidin-1-yl)methanone]: the Ki at rat orexin 1 receptor turned out to be 50 nM; on human orexin 1 receptor, 31 nM; at human orexin 2 receptor, 765 nM.

`Cc1cnc(-n2nccn2)c(C(=O)N2CCC[C@@H](Oc3ccc(C(F)(F)F)cn3)[C@@H]2C)c1` [Example 149, (5-methyl-2-(2H-1,2,3-triazol-2-yl)pyridin-3-yl)((2S,3R)-2-methyl-3-((5-(trifluoromethyl)pyridin-2-yl)oxy)piperidin-1-yl)methanone]: the results for the Ki on rat orexin 1 receptor, on human orexin 1 receptor and on human orexin 2 receptor were 24 nM, 18 nM and 5600 nM, respectively.

For the compound `Cc1ccc(C(=O)N2CCC[C@@H](Oc3ccc(C(F)(F)F)cn3)[C@@H]2C)c(-n2nccn2)n1` [Example 150, (6-methyl-2-(2H-1,2,3-triazol-2-yl)pyridin-3-yl)((2S,3R)-2-methyl-3-((5-(trifluoromethyl)pyridin-2-yl)oxy)piperidin-1-yl)methanone], the Ki on rat orexin 1 receptor was 32 nM; on human orexin 1 receptor, 39 nM; on human orexin 2 receptor it was more than 10000 nM.

Take `Cc1cccc(C(=O)N2CCC[C@@H](Oc3ccc(C(F)(F)F)cn3)[C@@H]2C)c1-c1ncccn1` [Example 151, (3-methyl-2-(pyrimidin-2-yl)phenyl)((2S,3R)-2-methyl-3-((5-(trifluoromethyl)pyridin-2-yl)oxy)piperidin-1-yl)methanone]: the Ki at rat orexin 1 receptor was found to be 35 nM; on human orexin 1 receptor, 31 nM; at human orexin 2 receptor, 537 nM.

As to `Cc1cccc(C(=O)N2CCC[C@@H](Oc3ccc(C(F)(F)F)cn3)[C@@H]2C)c1-n1nccn1` [Example 152, (3-methyl-2-(2H-1,2,3-triazol-2-yl)phenyl)((2S,3R)-2-methyl-3-((5-(trifluoromethyl)pyridin-2-yl)oxy)piperidin-1-yl)methanone], the Ki turned out to be 28 nM on rat orexin 1 receptor, 20 nM at human orexin 1 receptor and 412 nM on human orexin 2 receptor.

Consider `C[C@H]1[C@H](Oc2ncc(C(F)(F)F)cc2F)CCCN1C(=O)c1ccccc1-c1ncccn1` [Example 154, ((2S,3R)-3-((3-fluoro-5-(trifluoromethyl)pyridin-2-yl)oxy)-2-methylpiperidin-1-yl)(2-(pyrimidin-2-yl)phenyl)methanone], for which the Ki at rat orexin 1 receptor came out at 46 nM; at human orexin 1 receptor, 22 nM; on human orexin 2 receptor it was 526 nM.

Take `C[C@H]1[C@H](Oc2ncc(C(F)(F)F)cc2F)CCCN1C(=O)c1cccc(F)c1-c1ncccn1` [Example 155, (3-fluoro-2-(pyrimidin-2-yl)phenyl)((2S,3R)-3-((3-fluoro-5-(trifluoromethyl)pyridin-2-yl)oxy)-2-methylpiperidin-1-yl)methanone]: the Ki at rat orexin 1 receptor stood at 28 nM; on human orexin 1 receptor it was 16 nM; at human orexin 2 receptor it was 1100 nM.

Turning to `C[C@H]1[C@H](Oc2ncc(C(F)(F)F)cc2F)CCCN1C(=O)c1ccccc1-c1ncc(F)cn1` [Example 156, ((2S,3R)-3-((3-fluoro-5-(trifluoromethyl)pyridin-2-yl)oxy)-2-methylpiperidin-1-yl)(2-(5-fluoropyrimidin-2-yl)phenyl)methanone], the Ki at rat orexin 1 receptor is 47 nM; on human orexin 1 receptor it was 30 nM; on human orexin 2 receptor, 1300 nM.
